Laboratory results as given in US20230270764A1, “COMPOSITION COMPRISING CANNABINOIDS, TERPENES, AND FLAVONOIDS FOR TREATING DEPRESSION” (priority 2020, published 2023).

Tested on: LPS-injected mice
Assay: Sucrose preference test in the LPS-induced model of depression
Assay type: in vivo
Settings: Example 9; male C57BL/6, i.p. 1 h before LPS 330 µg/kg; mg/kg: CBD 30; CBDA 1 or 5; BCP 50; kaempferol 30; CBD 30 plus THC 10; CBD 30 plus kaempferol 30
Text: In a preliminary screening experiment, subjects were 4-6 months-old male C57BL/6 (Jackson Laboratories, USA). Animals were housed 2-3/cage, kept in an air-conditioned room (23+°C) and given ad libitum access to food and water. The mice were kept in a reversed light/dark cycle, with lights off from 7 a.m. to 7 p.m. All experiments were approved by the Hebrew University of Jerusalem Ethics Committee on Animal Care and Use. In preparation for the Sucrose Preference Test, mice were habituated 2-3 times to sucrose drinking, by exposing them overnight to two graduated tubes, one containing water and the other containing sucrose solution (1%, w/v). Water and sucrose consumption were measured, and sucrose preference was computed by dividing the amount of sucrose consumed by drinking (ml sucrose) by the total drinking volume (ml of sucrose + water). One day later, the weight of the mice and the food in their cages was weighed for later analysis of food consumption and body weight changes. Groups of mice were injected intraperitoneally (i.p.) with either vehicle (cremophor, ethanol and PBS, 1:1:18 (v/v/v)) or a cannabinoid-based formulation (by itself or with another cannabinoid, or a terpene or a flavonoid). One hour later, each of these groups was injected with LPS (330 µg/kg). All injections were administered at a dose of 10 ml/kg. Four hours following the LPS injection, mice were tested in the Open-Field Test. In this test, the measured locomotor activity reflects not only motor capacity, but particularly the innate motivation for spatial exploration (which increases the distance travelled) and the anxiety level (which reduces the distance travelled, in general, and particularly the distance and time spent in the center of the open field). Each subject was placed near one of the walls of a white 50 X 50 cm^2 arena with 40 cm high walls. The distance travelled (cm), the velocity of the movement (cm/second), the time spent (seconds), distance travelled (cm) in the center area of the arena, as well as the number of entries from the perimeter area into the center of the arena were automatically measured over a 4-minute period, using EthoVision XT video tracking system and software (Noldus, The Netherlands). Twenty-four hours after the LPS injection, mice were tested in the Social Exploration Test. […] Social exploration, defined as the time of near contact between the nose of the subject and the juvenile in the small cage was recorded for 4 min, using computerized in-house software. Sucrose preference was assessed, as described above, between 8 to 27 hr post LPS injection. Body weight and weight of the food were measured two hours before the LPS injection, and again after 24 hours, and the change in body weight and food consumption were calculated. […]

For `C=C1CC/C=C(\C)CC[C@@H]2[C@@H]1CC2(C)C` [β-caryophyllene], the “sucrose preference compared with vehicle-treated groups” value was “significantly increased sucrose preference”.
